# ± gives the standard deviation of the averaged measurements.
# Tests used:
# Experiment in all cases: level (log10 ratio to DMSO vehicle control); higher = higher biomarker level / cell amount than vehicle control
# Conditions in all cases: in DMSO
# [1] = compound: O=P(O)(O)CCC(F)(F)C(F)(F)C(F)(F)C(F)(F)C(F)(F)C(F)(F)F [2-(Perfluorohexyl)ethylphosphonic acid]
# Experimental: (§1)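 BioMAP Diversity Plus panel of 12 human primary cell co-culture systems (3C, 4H, LPS, SAg, BT, BF4T, BE3C, CASM3C, HDF3CGF, KF3CT, MyoF, Mphg). Compounds were added 1 h before stimulation and left for 24 h (MyoF 48 h; BT 72 h for soluble read-outs or 6 d for IgG). Biomarkers were read by ELISA, cytotoxicity by SRB, PBMC viability and proliferation by Alamar Blue. Each well value was divided by the mean of 8 DMSO control wells on the same plate and log10 transformed; duplicate blinded samples were tested at 4 concentrations.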
# [2] = compound: O=S(=O)(O)CCC(F)(F)C(F)(F)C(F)(F)C(F)(F)F [4:2 Fluorotelomer sulfonic acid]
# Experimental: as §1
# [3] = compound: FC(F)(F)C(F)(F)C(F)(F)C(F)(F)CCI [1H,1H,2H,2H-Perfluorohexyl iodide]
# Experimental: as §1
# [4] = compound: O=S(=O)(OCC(F)(F)F)C(F)(F)C(F)(F)C(F)(F)C(F)(F)F [2,2,2-Trifluoroethyl perfluorobutanesulfonate]
# Experimental: as §1
# [5] = compound: C=CC(=O)OCC(F)(F)C(F)(F)C(F)(F)C(F)(F)C(F)(F)C(F)(F)C(F)(F)C(F)F [1H,1H,9H-Perfluorononyl acrylate]
# Experimental: as §1
# [6] = compound: C=CC(=O)OCCC(F)(F)C(F)(F)C(F)(F)C(F)(F)C(F)(F)C(F)(F)C(F)(F)C(F)(F)F [8:2 Fluorotelomer acrylate]
# Experimental: as §1
Test System,level (log10) ([1]; 6700 nM),level (log10) ([1]; 20000 nM),level (log10) ([1]; 60000 nM),level (log10) ([2]; 6700 nM),level (log10) ([2]; 20000 nM),level (log10) ([2]; 60000 nM),level (log10) ([3]; 6700 nM),level (log10) ([3]; 20000 nM),level (log10) ([3]; 60000 nM),level (log10) ([4]; 6700 nM),level (log10) ([4]; 20000 nM),level (log10) ([4]; 60000 nM),level (log10) ([5]; 6700 nM),level (log10) ([5]; 20000 nM),level (log10) ([5]; 60000 nM),level (log10) ([6]; 6700 nM),level (log10) ([6]; 20000 nM),level (log10) ([6]; 60000 nM)
lMphg:SRB,-0.006 ± 0.0071,-0.0025 ± 0.013,0.009 ± 0.017,-0.0035 ± 0.00071,0.004 ± 0.0042,-0.001 ± 0.0042,-0.008 ± 0.011,-0.003 ± 0.0028,0 ± 0.021,-0.005 ± 0.0071,-0.012 ± 0.0085,-0.008 ± 0.018,-0.003 ± 0.0014,-0.005 ± 0.0042,-0.005 ± 0.0057,-0.003 ± 0.0085,-0.0105 ± 0.016,-0.004 ± 0.034
CASM3C:CXCL9/MIG,0.0095 ± 0.025,0.005 ± 0.033,0.0335 ± 0.066,-0.04 ± 0.03,-0.0225 ± 0.013,0.006 ± 0.033,0.016 ± 0.028,0.022 ± 0.03,0.0575 ± 0.09,-0.0035 ± 0.026,-0.014 ± 0.047,-0.072 ± 0.09,-0.014 ± 0.0042,-0.0045 ± 0.028,-0.0035 ± 0.03,0.026 ± 0.0071,-0.0055 ± 0.066,0.011 ± 0.065
CASM3C:CD87/uPAR,-0.0295 ± 0.022,-0.025 ± 0.014,-0.002 ± 0.0071,0 ± 0.027,0.0025 ± 0.0078,-0.0165 ± 0.037,-0.0015 ± 0.018,-0.024 ± 0.051,-0.0345 ± 0.033,-0.047 ± 0.064,-0.0215 ± 0.059,-0.048 ± 0.033,0.0315 ± 0.005,0.017 ± 0.042,0.005 ± 0.0057,-0.035 ± 0.021,-0.027 ± 0.011,-0.004 ± 0.0014
HDF3CGF:CXCL8/IL-8,-0.005 ± 0.0042,-0.0125 ± 0.00071,0.012 ± 0.0071,-0.011 ± 0.016,-0.0025 ± 0.0021,0.007 ± 0.017,0.003 ± 0.0057,-0.0025 ± 0.0035,0.0015 ± 0.011,0.003 ± 0.0071,0.001 ± 0.0071,0.0125 ± 0.0064,-0.009 ± 0.0042,0.0075 ± 0.021,0.0085 ± 0.0035,-0.01 ± 0.0085,-0.0105 ± 0.0035,-0.0095 ± 0.026
KF3CT:CXCL10/IP-10,-0.009 ± 0.0057,0.0035 ± 0.0078,0.0045 ± 0.005,-0.007 ± 0.0028,-0.0145 ± 0.011,-0.0115 ± 0.0092,0.012 ± 0.045,0.0205 ± 0.028,0.017 ± 0.05,0.0345 ± 0.022,0.033 ± 0.041,0.031 ± 0.042,-0.003 ± 0.024,-0.01 ± 0.017,-0.015 ± 0.0099,-0.007 ± 0.0057,-0.0125 ± 0.0021,-0.0135 ± 0.00071
BE3C:MMP-1,0.002 ± 0.017,0.0005 ± 0.026,0.052 ± 0.075,0.002 ± 0.0014,-0.0035 ± 0.0035,0.038 ± 0.057,0 ± 0.023,0.017 ± 0.021,0.0975 ± 0.023,0.01 ± 0.031,0.0165 ± 0.00071,0.0165 ± 0.00071,-0.023 ± 0.013,-0.009 ± 0.027,0.038 ± 0.064,-0.015 ± 0.0085,-0.013 ± 0.023,0.0365 ± 0.08
lMphg:CD69,-0.045 ± 0.042,-0.0285 ± 0.023,0.0175 ± 0.053,-0.023 ± 0.0028,-0.014 ± 0.021,-0.044 ± 0.059,-0.019,-0.013 ± 0.013,0.043 ± 0.021,-0.016 ± 0.033,-0.0355 ± 0.0021,-0.079 ± 0.028,-0.048 ± 0.0028,-0.0265 ± 0.025,-0.0255 ± 0.03,-0.054 ± 0.017,-0.0565 ± 0.023,0.002 ± 0.079
KF3CT:CXCL8/IL-8,-0.021 ± 0.0071,0.002 ± 0.0014,0.0355 ± 0.0035,-0.0095 ± 0.0078,-0.024 ± 0.018,-0.023 ± 0.025,0.0135 ± 0.044,0.0355 ± 0.042,0.0315 ± 0.047,-0.0165 ± 0.0035,0.0045 ± 0.00071,0.017 ± 0.0057,-0.0015 ± 0.0092,0.016 ± 0.0028,0.012 ± 0.033,-0.011 ± 0.0014,-0.047 ± 0.076,-0.117 ± 0.053
MyoF:SRB,-0.0075 ± 0.011,-0.004 ± 0.0071,-0.007 ± 0.0057,-0.004 ± 0.0071,-0.0045 ± 0.0021,-0.004 ± 0.0028,0.008 ± 0.0042,0.0055 ± 0.012,0.004 ± 0.018,0.0005 ± 0.011,-0.009 ± 0.014,-0.0255 ± 0.021,-0.0055 ± 0.0078,-0.016 ± 0.0042,-0.0725 ± 0.019,0 ± 0.0014,-0.001 ± 0.0028,-0.0095 ± 0.0092
3C:CD62E/E-Selectin,-0.0115 ± 0.0078,0 ± 0.0085,-0.001 ± 0.024,-0.019 ± 0.011,-0.0035 ± 0.019,0.0045 ± 0.018,-0.003 ± 0.0042,-0.0225 ± 0.018,0.005 ± 0.014,-0.0085 ± 0.013,-0.0385 ± 0.021,-0.0045 ± 0.016,-0.005,-0.019 ± 0.0099,-0.014 ± 0.018,-0.0165 ± 0.011,-0.0145 ± 0.022,0.001 ± 0.035
HDF3CGF:CD54/ICAM-1,0.045 ± 0.04,0.0145 ± 0.059,0.0065 ± 0.044,-0.013 ± 0.016,-0.01 ± 0.017,-0.0175 ± 0.013,-0.023 ± 0.013,-0.0005 ± 0.005,-0.0085 ± 0.016,-0.0105 ± 0.018,-0.0025 ± 0.022,-0.0285 ± 0.028,-0.021 ± 0.018,-0.0435 ± 0.00071,-0.0765 ± 0.042,0.034 ± 0.04,0.044 ± 0.059,0.0395 ± 0.088
KF3CT:MMP-9,-0.0305 ± 0.012,-0.024 ± 0.0071,-0.0565 ± 0.026,0.0075 ± 0.012,-0.011 ± 0.037,0.023 ± 0.0057,0.0055 ± 0.0078,0.0035 ± 0.00071,0.0115 ± 0.005,-0.012 ± 0.017,-0.016 ± 0.035,-0.001 ± 0.025,-0.013 ± 0.014,-0.0085 ± 0.0035,-0.0285 ± 0.04,-0.042,-0.0885 ± 0.044,-0.132 ± 0.047
MyoF:CXCL8/IL-8,-0.013 ± 0.013,0.018 ± 0.018,0.0795 ± 0.018,0 ± 0.0028,0.003 ± 0.02,-0.0055 ± 0.018,0.065 ± 0.1,0.078 ± 0.1,0.142 ± 0.12,-0.003 ± 0.064,0.0405 ± 0.057,0.013 ± 0.09,-0.024 ± 0.031,-0.006 ± 0.03,0.0205 ± 0.013,-0.003 ± 0.02,0.008 ± 0.018,0.029 ± 0.0057
3C:CD141/Thrombomodulin,0.01 ± 0.024,0.02 ± 0.051,0.0895 ± 0.044,-0.014 ± 0.0028,-0.005 ± 0.013,-0.013 ± 0.044,-0.041 ± 0.051,-0.0175 ± 0.052,0.0165 ± 0.059,-0.024 ± 0.018,-0.041 ± 0.028,-0.051 ± 0.016,-0.042 ± 0.0028,-0.076 ± 0.028,-0.114 ± 0.016,-0.0015 ± 0.036,-0.0295 ± 0.0035,0.023 ± 0.072

# Source: the supplement of paper PMC10331698
